Each compound was assayed against T1, Recombinant human Src (Homo sapiens, UniProt P12931) (assay: Src tyrosine kinase activity, poly E4Y / 32P-ATP phosphorylation assay). Conditions: Table 2; compound at 15 ug/mL; read-out: % Inhibition at 15 ug/mL Src (%).
T1 construct: made in house; host or cells: baculovirus-insect cell system
Format: biochemical
Procedure: Recombinant human Src was expressed using the baculovirus-insect cell system and purified as published (Budde et al., 1993 and 2000).
The tyrosine kinase activity of Src, Csk and FGFr was determined using poly E4Y and ^32P-ATP. Briefly, enzymes were assayed in a reaction mixture consisting of 0.15 M EPPS-NaOH (pH 8.0) with 6 mM MgCl2, 0.2 mM γ^32P-ATP (0.2-0.4 mCi/μmol), 10% glycerol, 0.1% Triton X-100, and poly E4Y. Poly E4Y is a synthetic peptide whose phosphorylation is measured in this assay by the addition of the radioactively labeled phosphate from the ATP (Budde et al., 1995). […] When ATP was varied (0, 50, 100 and 250 μM), poly E4Y was kept constant at 150 μg/ml.

T1 sequence (P12931 whole entry): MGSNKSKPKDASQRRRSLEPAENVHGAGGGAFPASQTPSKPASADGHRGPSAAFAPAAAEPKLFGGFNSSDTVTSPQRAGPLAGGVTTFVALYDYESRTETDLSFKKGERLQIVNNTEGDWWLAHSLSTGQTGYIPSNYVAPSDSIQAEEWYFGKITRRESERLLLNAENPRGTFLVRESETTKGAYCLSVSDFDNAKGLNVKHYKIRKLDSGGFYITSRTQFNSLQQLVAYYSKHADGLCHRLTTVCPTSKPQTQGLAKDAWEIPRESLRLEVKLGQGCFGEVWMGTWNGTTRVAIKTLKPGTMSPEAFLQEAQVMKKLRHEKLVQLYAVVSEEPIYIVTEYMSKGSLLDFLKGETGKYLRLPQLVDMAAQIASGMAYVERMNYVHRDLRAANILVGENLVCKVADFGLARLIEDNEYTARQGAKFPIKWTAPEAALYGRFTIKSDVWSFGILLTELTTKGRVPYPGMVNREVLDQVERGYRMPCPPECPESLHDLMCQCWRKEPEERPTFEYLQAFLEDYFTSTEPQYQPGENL

| SMILES | inhibition at 15 µg/mL [%] |
| --- | --- |
| Cc1ccc(S(=O)(=O)Nc2cc(NC3CCCCC3)c([N+](=O)[O-])cc2NS(=O)(=O)c2ccc(C)cc2)cc1 [Compound 9j, N-[4-cyclohexylamino-5-nitro-2-(4-toluenesulfonylamino)-phenyl]-4-toluenesulfonamide] | 4 |
| COc1ccc(CNc2cc(NS(=O)(=O)c3ccc(C)cc3)c(NS(=O)(=O)c3ccc(C)cc3)cc2[N+](=O)[O-])cc1 [Compound 9f, N-[4-(4-methoxy-benzylamino)-5-nitro-2-(4-toluenesulfonylamino)-phenyl]-4-toluenesulfonamide] | 17 |
| Cc1ccc(S(=O)(=O)Nc2cc(N3CCN(C)CC3)c([N+](=O)[O-])cc2NS(=O)(=O)c2ccc(C)cc2)cc1 [Compound 9b, N-[4-(4-methyl-piperazin-1-yl)-5-nitro-2-(4-toluenesulfonylamino)-phenyl]-4-toluenesulfonamide] | 2 |

Same assay, conditions: Table 2; compound at 50 μg/mL (starred values); read-out: % Inhibition Src (%), * = assayed at 50 μg/mL

| SMILES | inhibition at 50 µg/mL [%] |
| --- | --- |
| Cc1ccc(S(=O)(=O)Nc2cc(N3CCOCC3)c([N+](=O)[O-])cc2NS(=O)(=O)c2ccc(C)cc2)cc1 [Compound 9a, N-[4-(morpholin-4-yl)-5-nitro-2-(4-toluenesulfonylamino)-phenyl]-4-toluenesulfonamide] | 13 |

Same assay, conditions: Table 3, Formula II compounds; NI = no inhibition at 100 μg/mL

| SMILES | IC50 [µM] |
| --- | --- |
| Cc1ccc(S(=O)(=O)Nc2ccc(C(=O)NCc3cccc4ccccc34)cc2NS(=O)(=O)c2ccc(C)cc2)cc1 [Compound 22g, N-naphthalen-1-ylmethyl-3,4-bis-(4-toluenesulfonylamino)-benzamide] | 18 |
| Cc1ccc(S(=O)(=O)Nc2ccc(C(=O)NC(C)(C)C)cc2NS(=O)(=O)c2ccc(C)cc2)cc1 [Compound 22c, N-t-butyl-3,4-bis-(4-toluenesulfonylamino)-benzamide] | 300 |
| COc1ccc(Oc2ccc(NS(=O)(=O)c3ccc(Br)s3)c(NS(=O)(=O)c3ccc(C)cc3)c2)cc1 [Compound 22bb, N-[4-(4-methoxy-phenoxy)-2-(4-toluenesulfonylamino)-phenyl]-5-bromo-thiophene-2-sulfonamide] | 19.5 |
| CCCCc1ccc(S(=O)(=O)Nc2ccc(Oc3ccc(OC)cc3)cc2NS(=O)(=O)c2ccc(C)cc2)cc1 [Compound 22x, 4-butyl-N-[4-(4-methoxy-phenoxy)-2-(4-toluenesulfonylamino)-phenyl]-benzenesulfonamide] | 36 |
| COc1ccc(Oc2ccc(NS(=O)(=O)c3ccc(S(C)(=O)=O)cc3)c(NS(=O)(=O)c3ccc(C)cc3)c2)cc1 [Compound 22z, 4-methanesulfonyl-N-[4-(4-methoxy-phenoxy)-2-(4-toluenesulfonylamino)-phenyl]-benzenesulfonamide] | 174 |
| CC(=O)OCCCCCOc1ccc(NS(=O)(=O)c2ccc(C)cc2)c(NS(=O)(=O)c2ccc(C)cc2)c1 [Compound 12ee, 5-[3,4-bis-(4-toluenesulfonylamino)-phenoxy]-pentyl acetate] | 131 |

Same assay, conditions: Table 3; compound at 15 μg/mL; read-out: % Inhibition at 15 μg/mL Src (%)

| SMILES | inhibition at 15 µg/mL [%] |
| --- | --- |
| Cc1ccc(S(=O)(=O)Nc2ccc(C(=O)Nc3cccnc3)cc2NS(=O)(=O)c2ccc(C)cc2)cc1 [Compound 22d, N-pyridin-3-yl-3,4-bis-(4-toluenesulfonylamino)-benzamide] | 0 |
| COC(=O)c1c(S(=O)(=O)Nc2cc(Oc3ccc(OC)cc3)ccc2NS(=O)(=O)c2ccc(C)cc2)c(C)n(C)c1C [Compound 22dd, methyl 4-[5-(4-methoxy-phenoxy)-2-(4-toluenesulfonylamino)-phenylsulfamoyl]-1,2,5-trimethyl-1H-pyrrole-3-carboxylate] | 5 |
| COc1ccc(Oc2ccc(NS(=O)(=O)c3ccc(-c4ccon4)s3)c(NS(=O)(=O)c3ccc(C)cc3)c2)cc1 [Compound 22v, 5-isoxazol-3-yl-N-[4-(4-methoxy-phenoxy)-2-(4-toluenesulfonylamino)-phenyl]-thiophene-2-sulfonamide] | 22 |
| COc1ccc(Oc2ccc(NS(=O)(=O)c3ccc(C)cc3)c(NS(=O)(=O)c3c(C)noc3C)c2)cc1 [Compound 22n, 3,5-dimethyl-N-[5-(4-methoxy-phenoxy)-2-(4-toluenesulfonylamino)-phenyl]-isoxazole-4-sulfonamide] | 5 |
| COc1ccc(Oc2ccc(NS(=O)(=O)c3ccc(C)cc3)c(NS(=O)(=O)c3ccc(C)cc3OC)c2)cc1 [Compound 22hh, 2-methoxy-N-[5-(4-methoxy-phenoxy)-2-(4-toluenesulfonylamino)-phenyl]-4-methyl-benzenesulfonamide] | 17 |

Same assay, conditions: Table 4, Formula III compounds; NI = no inhibition at 100 μg/mL

| SMILES | IC50 [µM] |
| --- | --- |
| Cc1ccc(S(=O)(=O)Nc2cc(F)c(SCc3ccccc3Cl)cc2NS(=O)(=O)c2ccc(C)cc2)cc1 [Compound 38c, N-[4-(2-chloro-benzylsulfanyl)-5-fluoro-2-(4-toluenesulfonylamino)-phenyl]-4-toluenesulfonamide] | 2.2 |

Same assay, conditions: Table 6, Formula V compounds; compound at 15 μg/mL; read-out: % Inhibition at 15 μg/mL Src (%)

| SMILES | inhibition at 15 µg/mL [%] |
| --- | --- |
| COc1ccc(Oc2ccc3c(c2)NS(=O)(=O)N3S(=O)(=O)c2ccc(C)cc2)cc1 [Compound 72f, 5-(4-methoxy-phenoxy)-1-(4-toluenesulfonyl)-1,3-dihydro-benzo[1,2,5]thiadiazole 2,2-dioxide] | 14 |
| COc1ccc(Oc2ccc3[nH]c(=O)n(S(=O)(=O)c4ccc(C)cc4)c3c2)cc1 [Compound 72a, 6-(4-methoxy-phenoxy)-1-(4-toluenesulfonyl)-1,3-dihydro-benzoimidazol-2-one] | 21 |

Same assay, conditions: compound at 15 μg/mL; read-out: % Inhibition at 15 μg/mL Src %

| SMILES | inhibition at 15 µg/mL [%] |
| --- | --- |
| COc1ccc(Oc2ccc(N)c(NS(=O)(=O)c3ccc(C)cc3)c2)cc1 [Compound 71a, N-[2-amino-5-(4-methoxy-phenoxy)-phenyl]-4-toluenesulfonamide] | 13 |
| COc1ccc(OCc2ccc(CN)c(NS(=O)(=O)c3ccc(C)cc3)c2)cc1 [Compound 71w, N-[2-aminomethyl-5-(4-methoxy-phenoxymethyl)-phenyl]-4-toluenesulfonamide] | 9 |
| COc1ccc(Oc2cc(NS(=O)(=O)c3ccc(C)cc3)c(N)cc2C(F)(F)F)cc1 [Compound 71gg, N-[2-amino-5-(4-methoxy-phenoxy)-4-trifluoromethyl-phenyl]-4-toluenesulfonamide] | 19 |
| Cc1ccc(S(=O)(=O)Nc2cc(SCc3ccccc3Cl)ccc2N)cc1 [Compound 71kk, N-[2-amino-5-(2-chloro-benzylsulfanyl)-phenyl]-4-toluenesulfonamide] | 29 |
| Cc1ccc(C(=O)Nc2cc(N3CCOCC3)c([N+](=O)[O-])cc2NC(=O)c2ccc(C)cc2)cc1 [Compound 71y, N-(4-morpholin-4-yl-5-nitro-2-(4-toluoylamino)-phenyl)-4-toluamide] | 14 |
| Cc1ccc(C(=O)Nc2cc(NCC3CCCCC3)c([N+](=O)[O-])cc2NC(=O)c2ccc(C)cc2)cc1 [Compound 71aa, N-[4-(cyclohexylmethyl-amino)-5-nitro-2-(4-toluoylamino)-phenyl]-4-toluamide] | 0 |

Same assay, conditions: poly E4Y / 32P-ATP; Formula IV compounds

| SMILES | IC50 [µM] |
| --- | --- |
| COc1ccc(Oc2ccc(NS(=O)(=O)c3ccc(C)cc3)c(NC(=O)c3ccc(C)cc3)c2)cc1 [Compound 71q, N-[5-(4-methoxy-phenoxy)-2-(4-toluenesulfonylamino)-phenyl]-4-toluamide] | 99 |
| Cc1ccc(S(=O)(=O)Nc2ccc(NC(=O)c3ccccc3)cc2N(C(=O)c2ccccc2)S(=O)(=O)c2ccc(C)cc2)cc1 [Compound 71o, N-[3-[benzoyl-(4-toluenesulfonyl)-amino]-4-(4-toluenesulfonylamino)-phenyl]-benzamide] | 39 |

From patent US20060004197A1, “Sulfonamide-based compounds as protein tyrosine kinase inhibitors” (priority 2004, published 2006)
